The text below walks through data of patent publication US11492594B2, “Method for producing engineered heart muscle (EHM)” (GEORG-AUGUST-UNIVERSITÄT GÖTTINGEN STIFTUNG ÖFFENTLICHEN …, priority 2013, dated 2022).

The subject of assay [1] is human embryoid body (EB) cultures. Description: Flow cytometry-based screen of media and supplements in 3D human embryoid body (EB) cultures. Particulars: for cell death (sub-G1 fraction): compared to serum free medium without the factor or to other media, growth factors at above EC50 concentrations; for cardiomyocyte actinin expression (CM maturation): mean actinin fluorescence per cardiomyocyte.
Description: EBs cultured in different medium conditions were made into a single cell suspension as described above. Cells were fixed in 70% ice cold ethanol under constant mixing. The cells were stained for sarcomeric actinin (Sigma) to label cardiomyocytes and DAPI to analyze nuclear DNA content and to exclude cell doublets. Cells were run on a LSRII Cytometer (BD). At least 10,000 live cells were analyzed. The following parameters were then analyzed, (1) cell death (percentage of cells in the sub-G1 fraction), (2) cardiomyocyte and non-myocyte percentage (Actinin-positive and negative cells, respectively) (3) Cardiomyocte maturation (mean actinin fluorescence), (4) cardiomyocyte and (5) non-myocyte size (based on sideward scatter area, SSC-A).

In assay [2] the test system is hEHM (human engineered heart muscle). Description: hEHM formation and contractile force with varied matrix, basal medium and supplements. As to conditions: for hEHM formation and function by matrix component: contractile force at 2 mmol/L extracellular calcium; for force-generation of hEHM: 10 ng/ml added to serum-free medium, hES2. The assay is classed as cell-based. The procedure: The inventors constructed hEHMs using a modified EHM-engineering protocol (Zimmermann et al. Circ Res 90: 223-230 (2002), incorporated herein by reference). Briefly, EHMs (reconstitution volume: 450 μl) were prepared by pipetting a mixture containing freshly dispersed ESC-derivatives (1×10^4-15×10^6 cells in Iscove-Medium with 20% fetal calf serum, 1% non-essential amino acids, 2 mmol/l glutamine, 100 μmol/l β-mercaptoethanol, 100 U/ml penicillin, and […]), pH-neutralized collagen type I from rat tails (0.4 mg/EHM), Matrigel™ (10% v/v; Becton Dickenson or tebu), and concentrated serum-containing culture medium (2× DMEM, 20% horse serum, 4% chick embryo extract, 200 U/ml penicillin, and […] streptomycin) in circular molds (inner/outer diameter: 2/4 mm; height: 5 mm) (Table 1). hEHM condensed quickly within the casting molds and were transferred onto static stretch devices (110% of slack length) (Zimmermann et al. Nat Med 12: 452-458 (2006), incorporated herein by reference) on culture day 3. Medium was changed every other day. hEHM culture under stretch was performed for 7 days.
A protocol with reduced xenogenic components (Matrix protocol, Table 1) was established to enable pre-GMP hEHM. Cells were reconstituted in a mixture of pH-neutralized bovine collagen (Devros Medical, 0.4 mg/EHM), concentrated serum-containing culture medium (2× DMEM, 40% fetal calf serum, 200 U/ml penicillin, and […] streptomycin) and cultured in Iscove-Medium with 20% fetal calf serum, 1% non-essential amino acids, 2 mmol/l glutamine, 0.3 mmol/l ascorbic acid, 100 μmol/l β-mercaptoethanol, 100 U/ml penicillin, and 100 μg/ml streptomycin.
To generate fully defined, serum-free EHM cells were reconstituted in a mixture of pH-neutralized bovine collagen (Devros Medical, 0.4 mg/EHM), concentrated serum-free medium medium (2× DMEM, 8% B27, 200 U/ml penicillin, and […] streptomycin) and cultured in Iscove-Medium with full 4% B27, 1% non-essential amino acids, 2 mmol/l glutamine, 0.3 mmol/l ascorbic acid, 20 ng/ml IGF-1, 10 ng/ml FGF2, 10 ng/ml VEGF, 5 ng/ml TGFb1 (culture day 0-3 only), and 100 U/ml penicillin, and 100 μg/ml streptomycin (Serum-free protocol, Table 1). B27 supplement contains vitamins (Biotin, DL Alpha Tocopherol, Acetate DL Alpha-Tocopherol, Vitamin A), proteins and enzymes (BSA, fatty acid free Fraction V, Catalase, Human Recombinant Insulin, Human Transferrin, Superoxide Dismutase), and other cell-supporting components (Corticosterone, D-Galactose, Ethanolamine, Glutathione (reduced), L-Carnitine, Linoleic Acid, Linolenic Acid, Progesterone, Putrescine, Sodium Selenite, and T3 (triodo-I-thyronine). Where indicated full B27 (Invitrogen, A1486701) was compared to B27 without antioxidants (Invitrogen, #10889038) and B27 without insulin (Invitrogen, #0050129SA). B27 supplement was replaced by a custom-made supplement consisting of Albumin, Transferrin, Ethanolamine, Sodium selenite, L-Carnitine HCl, Hydrocortisone, Fatty acid supplement, and Triiodo-L-thyronine (Table 2).
(§1) The inventors analyzed force of contraction and twitch kinetics (contraction time: time from 50% to maximal contraction; relaxation time: time from maximal contraction to 50% relaxation) under isometric conditions as described before (Zimmermann et al. Circ Res 90: 223-230 (2002), incorporated herein by reference). Contraction frequency was assessed by light microcopy (unstimulated spontaneous contractions) immediately after removing EHMs from the incubator.

Assay [3] shares this test system. Nature of the assay: Spontaneous contraction frequency of hEHM by light microscopy. The assay is classed as cell-based. Particulars: n=6. Here is the method: as §1
Assay [4] has the same test system. Description: Isometric force of contraction and twitch kinetics of hEHM. The assay is classed as cell-based. Here is the method:
as §1

[5] abbreviates: compared to serum free medium without the factor.

In general, EC50 refers to the midpoint of the concentration-response curve.

With Neuregulin-1, the “cell death (sub-G1 fraction)” value in assay [1] is “caused substantial cell death”.

In the case of “TGFβ1: peptide growth factor (Peprotech, 100-21)”, the “formation of functional EHM” value in assay [2] (addition to serum-free medium from day 0 to 3 (5 ng/ml)) is recorded as “essential”. In addition, the “formation of functional EHM, prolonged treatment” value in assay [2] (prolonged treatment (culture day 0-10) versus day 0-3) is “did not yield an additional benefit”. The “cardiomyocyte actinin expression (CM maturation)” value in assay [1] is reported as “enhanced individual cardiomyocyte actinin expression”.

As to laminin, the “hEHM formation and function by matrix component” value in assay [2] is given as “did not yield additional benefit”.

The molecule `CC(C)Cn1c(=O)n(C)c(=O)c2[nH]cnc21` [IBMX, 3-isobutyl-1-methylxanthine] registered a spontaneous beating rate in assay [3] (IBMX 100 μmol/l in addition to isoprenaline) of 1.6±0.1 Hz.

For fibronectin, in assay [2], the “hEHM formation and function by matrix component” value is “did not yield additional benefit”.

As to `CC(C)NCC(O)c1ccc(O)c(O)c1` (stereo not shown) [isoprenaline, reference compound], the relaxation time in assay [4] (1 μmol/l isoprenaline at 0.4 mmol/l extracellular calcium, n=12) was determined as 113 ± 2.3 ms. The “increase in force of contraction” value in assay [4] (1 μmol/l isoprenaline at sub-EC50 extracellular calcium (0.4 mmol/l), n=12) is listed as 47±12%. In addition, the spontaneous beating frequency in assay [3] (incubation with isoprenaline, hEHM at 10 days, baseline 0.8±0.05 Hz at 37° C.) was 1.2±0.1 Hz.

For the molecule “IGF-1: peptide growth factor (Peprotech, AF-100-11)”, the “cell death (sub-G1 fraction)” value in assay [1] is on record as “appeared to protect from cell death”.

For VEGF, the “force-generation of hEHM” value in assay [2] is listed as “able to enhance force-generation”. Moreover, the “cardiomyocyte actinin expression (CM maturation)” value in assay [1] is given as “enhanced individual cardiomyocyte actinin expression”.

Regarding `[Ca+2]` [calcium], the “maximal force and isoprenaline response of hEHM in RPMI with added calcium” value in assay [2] (RPMI plus 0.8 mM CaCl (final free calcium 1.242 mmol/L) versus RPMI (0.424 mmol/L)) was “lead to measurable maximal force and better responsiveness to isoprenalin”. Moreover, the “maximal twitch mean force” value in assay [4] (at 2.4 mmol/l calcium, n=17) is listed as 130±13 μN. Moreover, the EC50 in assay [4] (increasing extracellular calcium, n=17) worked out at 800 ± 40 µM.

Take “FGF-2: peptide growth factor (Peprotech, AF-100-18B)”: the “force-generation of hEHM” value in assay [2] is “able to enhance force-generation”. Also, in assay [1] (setting [5]), the non-myocyte growth entry was “supported non-myocyte growth”. For the same molecule, in assay [1] (sideward scatter area), the cardiomyocyte cell size entry is “increased cardiomyocyte cell size”.

B1: CT-1: peptide growth factor (Cardiotrophin-1) (protein, UniProt Q16619 1-201, looked up)
Cardiotrophin-1: MSRREGSLEDPQTDSSVSLLPHLEAKIRQTHSLAHLLTKYAEQLLQEYVQLQGDPFGLPSFSPPRLPVAGLSAPAPSHAGLPVHERLRLDAAALAALPPLLDAVCRRQAELNPRAPRLLRRLEDAARQARALGAAVEALLAALGAANRGPRAEPPAATASAASATGVFPAKVLGLRVCGLYREWLSRTEGDLGQLLPGGSA
As to B1, in assay [1], the “cell death (sub-G1 fraction)” value is reported as “caused substantial cell death”.

B2: TGFβ2: peptide growth factor (protein, UniProt P61812 303-414, looked up)
Transforming growth factor …: ALDAAYCFRNVQDNCCLRPLYIDFKRDLGWKWIHEPKGYNANFCAGACPYLWSSDTQHSRVLSLYNTINPEASASPCCVSQDLEPLTILYYIGKTPKIEQLSNMIVKSCKCS
modifications: Transforming growth factor beta-2
Regarding B2, the “overall effect in growth factor screen” value in assay [1] (setting [5]) was “had no beneficial effect”.

B3: PDGF-BB: peptide growth factor (protein, UniProt P01127 82-190, looked up)
Platelet-derived growth …: SLGSLTIAEPAMIAECKTRTEVFEISRRLIDRTNANFLVWPPCVEVQRCSGCCNNRNVQCRPTQVQLRPVQVRKIEIVRKKPIFKKATVTLEDHLACKCETVAAARPVT
Turning to B3, the “cell death (sub-G1 fraction)” value in assay [1] is “caused substantial cell death”.
